From patent US20260284065A1, “PHARMACEUTICAL COMPOSITION FOR PREVENTION OR TREATMENT OF CANCER FOR OVERCOMING RESISTANCE TO IMMUNE CHECKPOINT INHIBITORS” (AJOU UNIVERSITY INDUSTRY-ACADEMIC COOPERATION FOUNDATION, priority 2023, published 2026)

Tested on: mouse gastric cancer cell line YTN16
Assay: YTN16 syngeneic mouse model: subcutaneous tumor size and tumor weight
Assay type: in vivo
Description: The experiment was conducted by dividing the mice into a control group (Control), a group administered with Comparative Example 1 (Anti-PD-1), a group administered with Comparative Example 2 (CCB-3233), and a group administered with Example 1 (Anti-PD-1+CCB-3233), and eight mouse models were used for each group.
Comparative Example 1 (Anti-PD-1) was diluted in 1×PBS at a concentration of 10 mg/kg and administered intraperitoneally to the mice, Comparative Example 2 (CCB-3233) was orally administered to the mice at a concentration of 50 mg/kg by dissolving 5% DMSO+5% CMC-NA in 1×PBS, and Example 1 (Anti-PD-1+CCB-3233) was diluted and prepared in different solvents as in Comparative Examples 1 and 2, and then administered sequentially.

## COc1cc2c(Oc3ccc(Nc4nn(C)cc4C(=O)NC4CCCCC4)cc3F)ccnc2cc1OCCCN1CCOCC1 [Comparative Example 2]
CCB-3233 administered together with the immune checkpoint inhibitor to YTN 16 syngeneic mice resistant to the immune checkpoint inhibitor
  therapeutic effect of the immune checkpoint inhibitor: enhanced
YTN16 syngeneic mice, anti-PD-1 10 mg/kg intraperitoneally, CCB-3233 50 mg/kg orally, compared between groups
  tumor weight (FIG. 2): no significant difference in tumor weight from the control group
